The NIST ThermoML archive (doi:10.1016/j.jct.2013.08.010)

Experiment: mn = molality of the nth substance listed, in mol/kg
Conditions: 101 kPa, Liquid; for speed of sound: Sing-around technique in a fixed-path interferometer; for mass density: Vibrating tube method

NCC(=O)O [2-aminoacetic acid] + O
Conditions | mass density, 288.15 K [kg/m3] | mass density, 298.15 K [kg/m3] | mass density, 308.15 K [kg/m3] | mass density, 318.15 K [kg/m3] | speed of sound, 288.15 K [m/s] | speed of sound, 298.15 K [m/s] | speed of sound, 308.15 K [m/s] | speed of sound, 318.15 K [m/s]
m1 = 0.01207 | 999.51 | 997.439 | 994.412 | 990.513 | 1467.2 | 1497.7 | 1520 | 1537.2
m1 = 0.0523 | 1000.84 | 998.74 | – | 991.747 | 1470.1 | 1500.1 | 1522.9 | 1538.9
m1 = 0.1037 | 1002.52 | 1000.39 | 997.281 | 993.309 | 1472.3 | 1502.3 | 1524.7 | 1541.1
m1 = 0.2037 | 1005.77 | 1003.57 | 1000.37 | 996.317 | 1477.8 | 1507.2 | 1529.7 | 1545.8
m1 = 0.3068 | 1009.07 | 1006.8 | 1003.51 | – | 1483.4 | 1512.4 | 1534.6 | 1551.4
m1 = 0.4124 | 1012.4 | 1010.06 | 1006.68 | 1002.46 | 1488.7 | 1517.8 | 1539.7 | 1555.4
m1 = 0.5028 | 1015.22 | 1012.82 | 1009.36 | 1005.06 | 1494.5 | 1523 | 1543.8 | 1560.2
m1 = 0.6058 | 1018.38 | 1015.9 | 1012.35 | 1007.97 | 1499.2 | 1527.3 | 1548.7 | 1564.1
m1 = 0.6829 | 1020.71 | 1018.19 | 1014.55 | 1010.1 | 1503.4 | 1531.3 | 1552.5 | 1567.7
m1 = 0.82 | 1024.83 | 1022.23 | 1018.45 | 1013.89 | 1510.2 | 1537.7 | 1558.6 | 1573.5

CC(C)[C@H](N)C(=O)O [L-valine] + O
Conditions | mass density, 288.15 K [kg/m3] | mass density, 298.15 K [kg/m3] | mass density, 308.15 K [kg/m3] | mass density, 318.15 K [kg/m3] | speed of sound, 288.15 K [m/s] | speed of sound, 298.15 K [m/s] | speed of sound, 308.15 K [m/s] | speed of sound, 318.15 K [m/s]
m1 = 0.00555 | 999.264 | 997.195 | 994.174 | 990.28 | 1467.4 | 1497.5 | 1520.4 | 1537.1
m1 = 0.02398 | 999.773 | 997.685 | 994.647 | 990.74 | 1467.3 | 1497.4 | 1520.4 | 1537.4
m1 = 0.03504 | 1000.08 | 997.977 | 994.929 | 991.014 | 1469.7 | 1499.6 | 1522 | 1538.7
m1 = 0.05824 | 1000.71 | 998.588 | 995.518 | 991.588 | 1469.6 | 1499.7 | 1522.6 | 1539
m1 = 0.07873 | 1001.27 | 999.124 | 996.034 | 992.09 | 1472.8 | 1502.4 | 1525 | 1541.2
m1 = 0.09938 | 1001.83 | 999.658 | 996.551 | 992.593 | 1474.8 | 1504.4 | 1526.9 | 1542.7
m1 = 0.2068 | 1004.69 | 1002.41 | 999.213 | 995.181 | 1477 | 1506.2 | 1528.2 | 1544.4
m1 = 0.2992 | 1007.1 | 1004.73 | 1001.45 | 997.351 | 1488.4 | 1516.6 | 1537.8 | 1552.5
m1 = 0.4017 | 1009.7 | 1007.24 | 1003.87 | 999.709 | 1497.2 | 1524.8 | 1545.2 | 1560.4
